Data published in publication PMC11225352, “A multicenter, randomized, double-blind, placebo-controlled ascending dose study to evaluate the safety, tolerability, pharmacokinetics (PK) and pharmacodynamic (PD) effects of Posiphen in subjects with early Alzheimer’s Disease” (Alzheimer's Research & Therapy, 2024).
Like-named read-outs stand apart in the source and are kept apart here.

Legend:
[1] = parameters: method as in PMID 22791904; settings: cited from earlier work
[2] = Cognitive and behavioral outcomes (ADAS-cog12, MMSE, NPI); type: in vivo, human
Source text: The screening visit included history, examination, review of medical records and medications, vital signs, physical and neurological examination, cognitive testing with the MMSE and Logical Memory test (Wechsler Memory Scale-revised), EKG, blood draw for routine laboratory tests, lumbar puncture and if needed, brain MRI. If eligible, participants underwent a baseline visit, with cognitive assessment using the MMSE and ADAS-cog12, behavioral assessments, Research Satisfaction Survey, safety assessments, and review of concurrent medications and adverse events, and they received a supply of the study drug (or placebo), which they started the day after the baseline visit. A telephone assessment was done at day 14 after baseline, to assess adverse events, concomitant medication changes and remind participants/study partners about the confinement visit. A pre-confinement visit took place 1–3 days before the confinement visit, following treatment for 20 days, and included physical and neurological examination, cognitive and behavioral assessments (see below), safety assessments (including clinical safety labs), and a review of compliance, concurrent medications and adverse events. The study drug or placebo was continued until the day before the confinement visit.
Safety measures included adverse events, vital signs, EKG and laboratory tests. The Mini-Mental State Examination (MMSE), Alzheimer’s Disease Assessment Scale-cognitive (ADAS-cog12) and Neuropsychiatric Inventory (NPI) were used as cognitive and behavioral outcomes,.
(§1) Changes in CSF biomarkers from the screening to confinement (sample at time of placement of catheter) were compared in the treatment and placebo groups by ANOVA, with models that included age, sex and baseline MMSE, and further analysis stratified by treatment dose. A similar approach was taken to analyze changes in MMSE, ADAS-cog and NPI. Data were analyzed using R (version 4.2.2).

[3] = Plasma pharmacokinetics of Posiphen and its N1 and N8 metabolites (LC-MS, non-compartmental); type: in vivo, human; settings: for Tmax: median (min-max); for AUC(0-t) / Cmax: 60 mg; for AUC(0-t): read-out: AUC0 − 24; for Cmax: read-out: Cmax; for mean levels averaged over 24 h of CSF sampling: after 21–23 days, early AD
Source text: For the confinement visit, subjects arrived in the early morning after an overnight fast. Physical and neurological examination, vital signs, and assessment of compliance were completed and blood was drawn for safety laboratory tests. An intravenous line and a second line for repeated blood draw were placed. To sample CSF, the intrathecal space was accessed using a Perifix 18G Touhy Epidural Needle (90 mm), and a Polyamide Epidural Catheter (20G Closed Tip) was inserted and fixed in place by an Anesthesiologist. Participants received the last day’s dosing of study drug or placebo. Initial blood and CSF samples were drawn, intravenous infusion of ^13C6-leucine was started and continued for 9 h, during which time subjects received a low leucine diet. Blood and CSF were sampled every 2 h for 36 h. After 36 h, intravenous lines and the CSF catheter were removed, vital signs were measured, physical exam performed, and blood and CSF were sent for routine laboratory studies. […] If postural headache was present, a blood patch was performed. Once stable, participants underwent a brief exam and vital sign check and were discharged. They received a phone call 24 h after discharge to check on their wellbeing.
(§2) For biochemical analysis to derive data for SILK, ^13C6-leucine was analyzed in plasma and CSF by mass spectrometry, and Aβ peptides in CSF were analyzed by immunoprecipitation-mass spectrometry (IP-MS) as previously described, by C2N Diagnostics (St Louis, MO). CSF levels of sAPPα, sAPPβ, Aβ38, 40 and 42 were analyzed by the ADCS Biomarker Core using Mesoscale Discovery (MSD) electrochemiluminescent assays (Mesoscale Discovery, Rockville, MD). Levels of Posiphen and its N1 and N8 metabolites in plasma and CSF were measured by Charles River Laboratories (Montreal, CA) by high-performance liquid chromatographic mass spectrometry, with use of deuterated Posiphen (procured by Charles River Laboratories) as an internal standard.
A prespecified Statistical Analysis Plan (SAP) was prepared and finalized before the database lock occurred. For safety and tolerability, frequencies of adverse events, serious adverse events and laboratory abnormalities between the participants across the three groups are compared, using Pearson’s χ [2] or ANOVA, as appropriate. Plasma concentration-time data are analyzed by non-compartmental methods using WinNonlin version 6.2.1 or greater. Calculations are based on the actual sampling times recorded during the study. For PK analysis, only the subjects receiving Posiphen are included.
Noncompartmental pharmacokinetic parameters were estimated using Phoenix WinNonlin v8.3 (Certara, Princeton, NJ). Levels and parameters (Cmax, AUC) of posiphen, n-1 and n-8 metabolites were highly correlated in plasma and CSF. For the BID and TID doses the expected post dose plasma peaks appeared attenuated.

sAPPβ = assay: CSF sAPPβ level, screening to day 21 (MSD immunoassay); type: in vivo, human; settings: ANOVA with age and sex as covariates; p = 0.16
Description: as §2, §1

Total tau = assay: CSF total tau level, screening to day 21; type: in vivo, human
Description: as §1

[4] = human, plasma, oral, plasma, 60 mg BID (n = 5), geometric mean (% geometric CV)
[5] = human, plasma, oral, plasma, 60 mg TID (n = 1)
[6] = human, plasma, oral, plasma, 60 mg daily (n = 4), geometric mean (% geometric CV)
[7] = plasma, 60 mg daily (n = 4), geometric mean (% geometric CV)

## CN1CC[C@]2(C)c3cc(OC(=O)Nc4ccccc4)ccc3N(C)[C@H]12 [Posiphen]
[1]; 20, 40 or 60 mg given four times per day
  safety and tolerability, multiple dose studies: safe and well-tolerated
[1]; Single Ascending Dose study, daily dose of 160 mg or higher
  gastro-intestinal side effects: high rate of gastro-intestinal side effects
[1]; oral, up to four times per day
  plasma half-life: short
[2]; Posiphen (n = 11), mITT, baseline 8.36 ± 9.52
  NPI, mean change from baseline to pre-confinement: -0.45 ± 7.01
[2]; Posiphen (n = 11), mITT, baseline 24.36 ± 2.8
  MMSE, Pre-confinement: 24.18 ± 2.52
[2]; Posiphen (n = 11), mITT, baseline 25.73 ± 8.76
  ADAS-Cog12, Pre-confinement: 25.18 ± 5.33
[2]; Posiphen or placebo groups
  ADAS-cog, MMSE or NPI total scores, change from baseline to pre-confinement visit: no significant changes
[2]; baseline to pre-confinement, Posiphen (n = 11), placebo 1.14 ± 2.12
  MMSE, Mean change: -0.18 ± 2.09
[2]; baseline to pre-confinement, Posiphen (n = 11), placebo -1.57 ± 5.19
  ADAS-Cog12, Mean change: -0.55 ± 6.04
[2]; contrast 60 mg – placebo, multiple linear regression (age, sex, APOE genotype, baseline score, arm), p 0.68
  ADAS-cog change, t: 0.42
[2]; contrast 60 mg – placebo, multiple linear regression, p 0.006
  MMSE change, t: -3.32
[2]; contrast 60 mg – placebo, multiple linear regression, p 0.51
  NPI change, t: 0.68
[2]; contrast 120 mg - placebo, multiple linear regression, p 0.02
  NPI change, t: 2.73
[2]; contrast 120 mg - placebo, multiple linear regression, p 0.24
  MMSE change, t: 1.2
[2]; contrast 120 mg - placebo, multiple linear regression, p 0.30
  ADAS-cog change, t: 1.1
[2]; contrast 180 mg - placebo, multiple linear regression, p 0.77
  ADAS-cog change, t: 029
[2]; contrast 180 mg - placebo, multiple linear regression, p 0.91
  NPI change, t: 0.12
[2]; mITT, p = 0.11
  NPI, Treatment difference (Posiphen – placebo): 7.10 ± 4.07 p = 0.11
[2]; mITT, p = 0.32
  ADAS-Cog12, Treatment difference (Posiphen – placebo): 3.00 ± 2.94 p = 0.32
[2]; mITT, p= 0.23
  MMSE, Treatment difference (Posiphen – placebo): -1.6 ± 1.28 p= 0.23
[3]; 60 mg once, twice, three times daily
  plasma exposure with more frequent dosing: did not increase proportionally
[3]; human, oral, plasma, 60 mg daily (n = 4), geometric mean (% geometric CV)
  half-life: 3.55 h
[3]; human, oral, plasma, 60 mg daily (n = 4), read-out: Tmax
  Tmax: 2 h
[3]; [4]
  AUC(0-t): 196 ng·h/mL
  Cmax: 30.4 ng/mL
[3]; [5]
  AUC(0-t): 288 ng·h/mL
  Cmax: 51.8 ng/mL
[3]; [6]
  AUC(0-t): 212 ng·h/mL
  Cmax: 52.7 ng/mL
[3]; plasma, 60 mg BID (n = 5)
  mean levels averaged over 24 h of CSF sampling: 9.51 ± 5.77 ng/mL
  Tmax: 2 (2–12) hr
[3]; plasma, 60 mg TID (n = 1)
  mean levels averaged over 24 h of CSF sampling: 12.01 ng/mL
[3]; [7]
  Cl/F: 274.04 (17.50) L/hr
  V/F: 1403.1 (59.23) L
[3]; plasma, 60 mg once daily (n = 5)
  mean levels averaged over 24 h of CSF sampling: 7.16 ± 4.25 ng/mL
sAPPβ
  CSF sAPPβ, Treatment difference (Posiphen – placebo): 47.9 (31.6) p = 0.16 pg/mL
Total tau; ANOVA with age and sex as covariates, p = 0.39
  CSF Total tau, Treatment difference (Posiphen – placebo): 133 (149) p = 0.39 pg/mL
Total tau; Posiphen arm, all doses (n = 10), screening 751 ± 404 (n = 11)
  CSF Total tau, Day 21: 849 ± 369 (n = 10) pg/mL
Total tau; screening to day 21, SEM 79.1, placebo 53.7
  CSF Total tau, LS mean change: 186.4 pg/mL
